pIC50: −log10 of the molar value.
Key:
IDO1 [1] = target: T1, IDO1 (Homo sapiens, UniProt P14902); test: IDO1 Cellular Assay in HeLa Cells Stimulated with IFNγ; type: cell-based; conditions: read-out: HeLa Cell Potency, IC50
IDO1 [2] = target: T1, IDO1; test: IDO1 Human Whole blood Assay; type: cell-based; parameters: Human whole blood was drawn in sodium heparin coated tubes from healthy internal donors; from tissue; host or cells: human whole blood from healthy donors, stimulated with LPS and IFNγ; conditions: LPS and IFNγ stimulated, 18 h, read-out: Human Whole Blood Potency, IC50
Experimental: IDO1Human Whole blood Assay
Compounds to be tested were serially diluted in ten 3-fold steps in DMSO starting from 10 mM. 3 μL of compound dilutions or DMSO alone were then dispensed from the dilution plate into a polypropylene 96-well assay plate containing 97 μL of RPMI medium using an Echo 555 acoustic liquid handler (Labcyte). LPS and IFNγ was prepared in RPMI medium to a 10× of final conc. (1000 ng/mL), final concentration is 100 ng/mL.
Human whole blood was drawn in sodium heparin coated tubes from healthy internal donors. 240 μL of blood was transferred to each of the wells of a v-bottom 96 well plate. 30 μL of compound was transferred from intermediate dilution plate, and incubated for 15 min. 30 μL from stimulants was then transferred to blood and mixed thoroughly. Plate was covered with breathable membrane and incubated at 37° C. for overnight (18 h).
On day 2, isotope labeled standard solutions of kynurenine and tryptophan was made in water at 10× concentration and 30 μL was added to the blood at 3 μM final concentration. The assay plates were centrifuged at 300×G for 10 min with no brake to separate plasma from red blood cells. 60 μL of plasma samples was removed without disturbing red blood cells. Plasma was diluted with RPMI in 1:1 ratio and proteins were precipitated out with two volumes of Acetonitrile. The plates were centrifuged at 4000×G for 60 min. 20 μL of supernatant was carefully transferred to a 384 well plate containing 40 μL of 0.1% formic acid in water and analyzed by LC/MS/MS.
LC/MS/MS analyses were performed using Thermo Fisher's LX4-TSQ Quantum Ultra system. This system consists of four Agilent binary high-performance liquid chromatography (HPLC) pumps and a TSQ Quantum Ultra triple quadrupole MS/MS instrument. For each sample, 5 μL were injected onto an Atlantis T3 column (2.1 mm×150 mm, 3 μm particle size) from Waters. The mobile phase gradient pumped at 0.8 mL/min was used to elute the analytes from the column at 25° C. The elution started at 0% B increasing linearly to 25% B at 6.5 min, holding at 25% for 1 min, re-equilibrating to 10 min. Mobile phase A consisted of 0.1% formic acid in water. Mobile phase B consisted of 0.1% of formic acid in acetonitrile. Data were acquired in positive mode using a HESI interface. The operational parameters for the TSQ Quantum Ultra instrument were a spray voltage of 4000 V, capillary temperature of 380° C., vaporizer temperature 400° C., shealth gas 60 arbitrary units, Aux gas 20 arbitrary units, tube lens 85 and collision gas 1.2 mTorr. SRM chromatograms of kynurenine (Q1: 209.2>Q3:94.0) and internal standard (Q1: 215.3>Q3:98.2) were collected for 90 sec. The peak area was integrated by Xcalibur Quan software. The ratios between the kynurenine generated in the reaction and 2D6-Kynurenine spiked-in internal standard were used to generate percentage inhibition and IC50 values. Compounds were titrated and IC50's were calculated by 4 parameter sigmoidal curve fitting formula.

T1 sequence (P14902 whole entry): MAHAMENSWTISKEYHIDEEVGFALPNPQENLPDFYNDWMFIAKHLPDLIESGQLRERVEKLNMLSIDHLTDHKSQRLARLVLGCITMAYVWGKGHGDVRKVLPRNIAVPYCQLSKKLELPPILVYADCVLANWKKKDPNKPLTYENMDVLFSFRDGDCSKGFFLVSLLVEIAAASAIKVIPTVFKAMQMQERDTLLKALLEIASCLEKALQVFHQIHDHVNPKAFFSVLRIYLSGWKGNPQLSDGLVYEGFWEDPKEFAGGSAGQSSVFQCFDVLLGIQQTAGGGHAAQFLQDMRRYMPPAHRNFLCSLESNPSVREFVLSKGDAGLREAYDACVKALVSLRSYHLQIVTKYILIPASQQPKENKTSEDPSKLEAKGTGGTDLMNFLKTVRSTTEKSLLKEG

Row | SMILES | pIC50 (IDO1 [1]) | pIC50 (IDO1 [2])
1 | Cc1cccc(N2CCN(C(=O)Cn3nc(C(=O)N4CC[C@H](O)[C@H](F)C4)c4c3CC(C(F)F)C4)CC2)c1C (mixture of isomers) [Example 17, 2-[rac-5-(difluoromethyl)-3-[(3R,4S)-3-fluoro-4-hydroxy-piperidine-1-carbonyl]-5,6-dihydro-4H-cyclopenta[c]pyrazol-1-yl]-1-[4-(2,3-dimethylphenyl)piperazin-1-yl]ethanone] | 7.96 | 6.20
2 | Cc1cccc(N2CCN(C(=O)Cn3nc(C(=O)N4CCC(O)CC4)c4c3CC(C(F)F)C4)CC2)c1C (racemic) [Example 16, 2-[rac-5-(difluoromethyl)-3-(4-hydroxypiperidine-1-carbonyl)-5,6-dihydro-4H-cyclopenta[c]pyrazol-1-yl]-1-[4-(2,3-dimethylphenyl)piperazin-1-yl]ethanone] | 8.66 | 6.84
3 | Cc1cccc(N2CCN(C(=O)Cn3nc(C(=O)N4CCC(OCCO)CC4)c4c3C[C@H]3C[C@@H]43)[C@H]3CCC[C@@H]32)c1C (racemic) [Example 326, 1-[rac-(4aS,7aS or 4aR,7aR)-1-(2,3-dimethylphenyl)-3,4a,5,6,7,7a-hexahydro-2H-cyclopenta[b]pyrazin-4-yl]-2-[(2R,4R)-9-[4-(2-hydroxyethoxy)piperidine-1-carbonyl]-7,8-diazatricyclo[4.3.0.02,4]nona-1(6),8-dien-7-yl]ethanone] | 8.30 | 6.09
4 | Cc1cccc(N2CCN(C(=O)Cn3nc(C(=O)N4CCCC4)c4c3CCC(F)C4)CC2)c1C (single isomer, unassigned) [Example 7, 1-(4-(2,3-dimethylphenyl)piperazin-1-yl)-2-(5-fluoro-3-(pyrrolidine-1-carbonyl)-4,5,6,7-tetrahydro-1H-indazol-1-yl)ethanone] | 7.95 | 6.03
5 | Cc1cccc(N2CCN(C(=O)Cn3nc(C(=O)N4CCCC4)c4c3CCC(F)C4)CC2)c1C (single isomer, unassigned) [Example 8, 1-(4-(2,3-dimethylphenyl)piperazin-1-yl)-2-(5-fluoro-3-(pyrrolidine-1-carbonyl)-4,5,6,7-tetrahydro-1H-indazol-1-yl)ethanone] | 7.95 | 5.61
6 | Cc1cccc(N2CCN(C(=O)Cn3nc(C(=O)N4CCC(O)CC4)c4c3C[C@H](C(F)F)C4)CC2)c1C (single isomer, unassigned) [Example 9] | 8.37 | 6.90
7 | Cc1cccc(N2CCN(C(=O)Cn3nc(C(=O)N4CCC(O)CC4)c4c3CC(C(F)F)C4)CC2)c1C (single isomer, unassigned) [Example 10, 2-[5-(difluoromethyl)-3-(4-hydroxypiperidine-1-carbonyl)-5,6-dihydro-5H-cyclopenta[c]pyrazol-1-yl]-1-[4-(2,3-dimethylphenyl)piperazin-1-yl]ethanone] | 8.76 | 6.63
8 | Cc1cccc(N2CCN(C(=O)Cn3nc(C(=O)N4CC[C@H](O)[C@H](F)C4)c4c3CC(C(F)F)C4)CC2)c1C (single isomer, unassigned) [Example 11] | 8.12 | 6.01
9 | Cc1cccc(N2CCN(C(=O)Cn3nc(C(=O)N4CC[C@H](O)C(F)(F)C4)c4c3CCC4)CC2)c1C (single isomer, unassigned) [Example 201, 2-[3-[(4S or 4R)-3,3-difluoro-4-hydroxy-piperidine-1-carbonyl]-5,6-dihydro-4H-cyclopenta[c]pyrazol-1-yl]-1-[4-(2,3-dimethylphenyl)piperazin-1-yl]ethanone] | 8.44 | 5.74
10 | Cc1cccc(N2CCN(C(=O)Cn3nc(C(=O)N4CC[C@@H](O)C(F)(F)C4)c4c3CCC4)CC2)c1C (single isomer, unassigned) [Example 202, 2-[3-[(4R or 4S)-3,3-difluoro-4-hydroxy-piperidine-1-carbonyl]-5,6-dihydro-4H-cyclopenta[c]pyrazol-1-yl]-1-[4-(2,3-dimethylphenyl)piperazin-1-yl]ethanone] | 8.23 | 6.29
11 | Cc1cccc(N2CCN(C(=O)Cn3nc(C(=O)N4CCC(O)C(F)C4)c4c3CCC4)C3(CC3)C2)c1C (single isomer, unassigned) [Example 328, 1-[7-(2,3-dimethylphenyl)-4,7-diazaspiro[2.5]octan-4-yl]-2-[3-(3-fluoro-4-hydroxy-piperidine-1-carbonyl)-5,6-dihydro-4H-cyclopenta[c]pyrazol-1-yl]ethanone] | 8.16 | 5.38
12 | Cc1cccc(N2CCN(C(=O)Cn3nc(C(=O)N4CCC(O)C(F)C4)c4c3CCC4)C3(CC3)C2)c1C (single isomer, unassigned) [Example 329, 1-[7-(2,3-dimethylphenyl)-4,7-diazaspiro[2.5]octan-4-yl]-2-[3-(3-fluoro-4-hydroxy-piperidine-1-carbonyl)-5,6-dihydro-4H-cyclopenta[c]pyrazol-1-yl]ethanone] | 8.14 | 6.04
13 | Cc1cccc(N2CCN(C(=O)Cn3nc(C(=O)N4CCC(O)C(F)C4)c4c3CCC4)C3(CC3)C2)c1C (single isomer, unassigned) [Example 330, 1-[7-(2,3-dimethylphenyl)-4,7-diazaspiro[2.5]octan-4-yl]-2-[3-(3-fluoro-4-hydroxy-piperidine-1-carbonyl)-5,6-dihydro-4H-cyclopenta[c]pyrazol-1-yl]ethanone] | 8.12 | 6.01
14 | Cc1c(Cl)cccc1N1CCN(C(=O)Cn2nc(C(=O)N3CCC(OCCO)CC3)c3c2CCC(F)C3)CC1 (single isomer, unassigned) [Example 368, 1-(4-(3-chloro-2-methylphenyl)piperazin-1-yl)-2-(5-fluoro-3-(4-(2-hydroxyethoxy)piperidine-1-carbonyl)-4,5,6,7-tetrahydro-1H-indazol-1-yl)ethan-1-one] | 8.55 | 7.26
15 | Cc1c(Cl)cccc1N1CCN(C(=O)Cn2nc(C(=O)N3CCC(OCCO)CC3)c3c2CCC(F)C3)CC1 (single isomer, unassigned) [Example 373, 1-(4-(3-chloro-2-methylphenyl)piperazin-1-yl)-2-(5-fluoro-3-(4-(2-hydroxyethoxy)piperidine-1-carbonyl)-4,5,6,7-tetrahydro-1H-indazol-1-yl)ethan-1-one] | 8.42 | 6.69
16 | Cc1cccc(N2CCN(C(=O)Cn3nc(C(=O)N4CCC(O)C(F)C4)c4c3CCC4)C3(CC3)C2)c1C (single isomer, unassigned) [Example 393, 1-(7-(2,3-dimethylphenyl)-4,7-diazaspiro[2.5]octan-4-yl)-2-(3-(3-fluoro-4-hydroxypiperidine-1-carbonyl)-5,6-dihydrocyclopenta[c]pyrazol-1(4H)-yl)ethanone] | 8.12 | 6.01
17 | Cc1c(F)cccc1N1CCN(C(=O)Cn2nc(C(=O)N3CC[C@H](O)[C@H](F)C3)c3c2CCC3)CC1 [Example 486, 1-(4-(3-fluoro-2-methylphenyl)piperazin-1-yl)-2-(3-((3R,4S)-3-fluoro-4-hydroxypiperidine-1-carbonyl)-5,6-dihydro-cyclopenta[c]pyrazol-1(4H)-yl)ethanone] | 6.89 | 
18 | Cc1ccccc1N1CCN(C(=O)Cn2nc(C(=O)N3C[C@@H](C)O[C@@H](C)C3)c3c2CCC3)CC1 [Example 487, 2-(3-((2S,6R)-2,6-dimethylmorpholine-4-carbonyl)-5,6-dihydro-cyclopenta[c]pyrazol-1(4H)-yl)-1-(4-(o-tolyl)piperazin-1-yl)ethanone,] | 7.29 | 
19 | Cc1cccc(N2CCN(C(=O)Cn3nc(C(=O)N4C[C@@H](C)O[C@@H](C)C4)c4c3CCC4)CC2)c1 [Example 488, 2-(3-((2S,6R)-2,6-dimethylmorpholine-4-carbonyl)-5,6-dihydrocyclopenta [c]pyrazol-1(4H)-yl)-1-(4-(m-tolyl)piperazin-1-yl)ethanone] | 7.08 | 

Reference: US12264134B2 (Merck Sharp & Dohme LLC, priority 2018, dated 2025)
